Tests used:
Format in all cases: in vivo, Sprague-Dawley rats
GLUT4 [1] = experiment: Western blot of GLUT4 expression in skeletal muscles of streptozotocin-induced diabetic rats; parameters: concentration or dose not given beside the values; conditions: STZ diabetic rats, skeletal muscle, 28 days treatment, versus diabetic control G2
Method: (§1) “To evaluate the antidiabetic potential of the present compositions and its mechanistic role in controlling damages of vital tissues in streptozotocin-induced diabetic rats.”
(§2) • Species: Rats • Strain: Sprague-Dawley • Sex: Male • No. of animals: 36 Animals (n=6 per group) • Body weight: 110-130 g Animal House conditions • Lighting: 12/12-hour light-dark cycle • Temperature: 22±3° C. • Relative Humidity: 40 to 60%
(§3) Acclimatization: Animals have been acclimatized to the animal house environment for 2 weeks. The animal experiments were designed and conducted strictly in accordance with the guidelines of AEC. Streptozotocin (STZ) was freshly prepared in 0.1M citrate buffer (pH 4.5). T2D was induced experimentally by single intraperitoneal (i.p.) injection of low dose STZ (40 mg per kg) to the rats, kept fasted overnight. Animals were unfed for 12 h before the estimation of fasting blood glucose. When the fasting plasma glucose level had become above 250 mg dL-1 in 72 h after STZ administration, STZ treated animals were considered as diabetic and all the experimental animals were then kept without any treatment for a period of 2 weeks. The composition treatment was started on 15th day after STZ injection in the respective groups of rats.
(§4) Test sample was dissolved in water containing 0.1% v/v Dimethyl Sulfoxide (DMSO) for animal treatment. Diabetic rats were then treated with intracerebroventricular (i.c.v.) administration of test samples. The animals were divided in six groups each of which contained six rats:
(§5) Daily food and water consumptions were observed and body weights were taken on a weekly basis. After 72 h of STZ administration, blood was drawn from tail vein of rats and fasting blood glucose was measured by glucometer. On the last day of the experiment, all rats were sacrificed by common method of euthanasia. All animals were unfed for 12 h before being killed. Liver, kidneys, pancreas tissues and skeleton muscles were removed surgically and stored at −80° C. in a deep freezer for western blot analysis.
(§6) GLUT4 and CD38 expressions were evaluated by Western blot. For GLUT4 content analysis, membrane samples were prepared from skeletal muscles and for CD38 protein analysis, liver tissues were used. In Western blot analysis, 25 μg of membrane protein per sample was subjected to Sodium Dodecyl Sulfate (SDS) polyacrylamide gel electrophoresis in parallel with molecular weight markers on a 10% resolving gel. The separated proteins were then transferred to a nitrocellulose membrane in a semidry system. β-tubulin was used to ensure equivalent loading of the gel incubating the same membrane with β-tubulin antibody after stripping.
(§7) Western blotting kit was used for immunodetection, using anti-GLUT4 and anti-CD38 antibodies. Detection was done by the enhanced chemiluminescence method and densitometric quantitation was done by scanning of the autoradiographic GLUT4 and CD38 signals with the help of software. Densitometric scanning was indicated the (percentage of band intensity) of GLUT4 bands and CD38 bands of test samples treated diabetic rats and diabetic control rats. Data were expressed as percentage increase or decrease of intensity of band.
(§8) Each value represents mean±SD (n=6). The significance of in vivo data was analyzed by one-way Anova followed by Dunnet test. P<0.05 was considered as significant.

CD38 [2] = experiment: Western blot of CD38 expression in liver tissues of streptozotocin-induced diabetic rats; parameters: % Decrease of CD38 Disease control: concentration or dose not given beside the values; conditions: STZ diabetic rats; for % Decrease of CD38 Disease control: liver tissue, 28 days treatment, versus diabetic control G2
Method: as §1, §2, §3, §4, §5, §6, §7, §8

CD38 [3] = experiment: as above; conditions: STZ diabetic rats, liver tissue, daily treatment for 28 days from day 15 after STZ, densitometry, n=6; normal control 100, diabetic control 112
GLUT4 [4] = experiment: Western blot of GLUT4 expression in skeletal muscles of streptozotocin-induced diabetic rats; conditions: STZ diabetic rats, skeletal muscle membrane, daily treatment for 28 days from day 15 after STZ, i.p. (Table 1), densitometry, n=6; normal control 100, diabetic control 80

Compound | % Increase of Glut4 over Disease control (GLUT4 [1]) | downregulation of CD38 (result in words) (CD38 [2]; discussion of the Western blot results) | % Decrease of CD38 Disease control (CD38 [2]) | Band Intensity of CD38 (%) 45 kDa (CD38 [3]) | Band Intensity of GLUT4 (%) 54 kDa (GLUT4 [4])
CC1=CC(=O)CC(C)(C)[C@@]1(O)/C=C/C(C)=C\C(=O)O [Composition G3, (2Z,4E)-5-[(1S)-1-hydroxy-2,6,6-trimethyl-4-oxocyclohex-2-en-1-yl]-3-methylpenta-2,4-dienoic acid] | 37.5% | not sufficient to give significant results | 15.2% | 95% | 110%
CC(CN)C(=O)O (stereo not drawn) [Composition G4, 3-Aminoisobutyric acid] | 30.0% | – | 11.6% | 99% | 104%
C[S+]([O-])CCCCN=C=S (stereo not drawn) [Composition G5, 1-isothiocyanato-4-methylsulfinylbutane] | 18.8% | – | 8.9% | 102% | 95%
O=C(O)CC(=O)C(=O)O [Composition G6, Oxobutanedioic acid] | 27.5% | – | 9.8% | 101% | 102%
C[C@H](O)C(=O)N[C@@H](Cc1ccccc1)C(=O)O [Composition G7, (2S)-2-[[(2S)-2-hydroxypropanoyl]amino]-3-phenylpropanoic acid] | 32.5% | – | 14.3% | 96% | 106%
CCCCCCCCCCCCCCC(=O)O [Composition G8, Pentadecanoic acid] | 25.0% | – | 8.0% | 103% | 100%
CC(C)CC(N)C(=O)NC(CC(C)C)C(=O)O (stereo not drawn) [Composition G9, Dileucine] | 22.5% | – | 11.6% | 99% | 98%
CC1=C(O)C(=O)C=C2C1=CC=C1[C@@]2(C)CC[C@@]2(C)[C@@H]3C[C@](C)(C(=O)O)CC[C@]3(C)CC[C@]12C [Composition G10, (2R,4aS,6aR,6aS,14aS,14bR)-10-hydroxy-2,4a,6a,6a,9,14a-hexamethyl-11-oxo-1,3,4,5,6,13,14,14b-octahydropicene-2-carboxylic acid] | 18.8% | – | 9.8% | 101% | 95%
